EC50 data for 29 compounds are collected here from US20260374754A1, “N-((ISOQUINOLIN-6-YL)METHYL)-1H-PYRAZOLE-4-CARBOXAMIDE DERIVATIVES AS PLASMA KALLIKREIN INHIBITORS FOR THE TREATMENT OF HEREDITARY ANGIODEMA” (Takeda Pharmaceutical Company Limited, priority 2022, published 2026).

SMILES strings stand for the structures. A value given as a limit tells only on which side of the number the result lay.

Chain of human activated kallikrein enzyme (P03952 391-638 limits assumed): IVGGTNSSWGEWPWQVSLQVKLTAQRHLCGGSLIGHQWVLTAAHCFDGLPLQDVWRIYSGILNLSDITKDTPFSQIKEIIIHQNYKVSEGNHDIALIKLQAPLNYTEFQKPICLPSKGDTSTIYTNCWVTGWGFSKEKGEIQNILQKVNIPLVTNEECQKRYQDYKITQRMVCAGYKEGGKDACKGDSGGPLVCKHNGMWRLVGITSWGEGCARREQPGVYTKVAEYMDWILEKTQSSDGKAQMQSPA
Chain of human activated kallikrein enzyme (P03952 20-390 partner limits assumed): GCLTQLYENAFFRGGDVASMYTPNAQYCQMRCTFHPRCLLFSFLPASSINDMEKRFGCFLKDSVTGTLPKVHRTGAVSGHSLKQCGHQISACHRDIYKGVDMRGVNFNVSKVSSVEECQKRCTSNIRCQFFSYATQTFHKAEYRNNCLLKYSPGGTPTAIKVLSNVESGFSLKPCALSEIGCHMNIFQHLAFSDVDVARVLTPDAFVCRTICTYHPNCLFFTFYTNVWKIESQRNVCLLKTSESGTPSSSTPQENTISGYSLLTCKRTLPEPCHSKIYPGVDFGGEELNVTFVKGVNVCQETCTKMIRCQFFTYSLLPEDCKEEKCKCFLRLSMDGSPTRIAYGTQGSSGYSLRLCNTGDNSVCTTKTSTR

One test addresses human activated kallikrein enzyme (Homo sapiens, UniProt P03952). Description: Inhibition of human activated plasma kallikrein, fluorogenic PFR-AMC substrate, 500 pM enzyme format. The class given is biochemical. The settings on record: 500 pM activated kallikrein; 300 μM PFR-AMC; 30 min preincubation; 10 min room temperature; pH 7.5; read-out: Primary Dose Response Assay: Average EC50. How it is done:
Compounds were evaluated for inhibition of the human activated kallikrein enzyme in two formats of an assay employing a fluorogenic peptide substrate. In one assay format, the concentrations of reagents were as follows: 20 mM Tris pH 7.5, 1 mM EDTA, 150 mM sodium chloride, 0.1% PEG-400, 0.1% Triton X-100, 500 pM activated kallikrein enzyme, 300 μM Pro-Phe-Arg-7-amido-4-methylcoumarin (PFR-AMC) substrate. Prior to reaction initiation with substrate, enzyme and inhibitors were preincubated for 30 min at room temperature. After initiation with substrate, reactions were incubated for 10 min at room temperature and fluorescence emission at 460 nm from 380 nm excitation measured with a microplate reader. In another assay format, the concentrations of reagents were as follows: 20 mM Tris pH 7.5, 1 mM EDTA, 150 mM sodium chloride, 0.1% PEG-400, 0.1% Triton X-100, 5 pM activated kallikrein enzyme, 300 uM PFR-AMC substrate. Prior to reaction initiation with substrate, enzyme and inhibitors were preincubated for 30 min at room temperature. After initiation with substrate, reactions were incubated for 18 hr at room temperature and fluorescence emission at 460 nm from 380 nm excitation measured with a microplate reader.
Table 35 provides the results of the assay in the format with 500 pM activated kallikrein assay.
In the case of `Cc1cc2c(N)nccc2c(C)c1CNc1cc2nn(Cc3ccc(Cn4cccn4)cc3)cc2cn1` [Example I-459, 6-(((2-(4-((1H-pyrazol-1-yl)methyl)benzyl)-2H-pyrazolo[4,3-c]pyridin-6-yl)amino)methyl)-5,7-dimethylisoquinolin-1-amine], the EC50 is 0.01 to 0.1 µM. With `Cc1cc2c(N)nccc2c(C)c1CNC(=O)c1cnn(Cc2cc3cc(Br)ccc3s2)c1` [Example 51, N-((1-amino-5,7-dimethylisoquinolin-6-yl)methyl)-1-((5-bromobenzo[b]thiophen-2-yl)methyl)-1H-pyrazole-4-carboxamide], the EC50 is under 0.001 µM. In the case of `Cc1cc2c(N)nccc2c(C)c1CNc1cc(OCc2ccc(Cn3cccn3)nc2)cnn1` [Example 445, 6-(((5-((6-((1H-pyrazol-1-yl)methyl)pyridin-3-yl)methoxy)pyridazin-3-yl)amino)methyl)-5,7-dimethylisoquinolin-1-amine], the EC50 lay in the range of 0.1 to 1 µM. Regarding `Cc1cc2c(N)nccc2c(C)c1CNC(=O)c1cnn(Cc2ccc3cnn(C)c3c2)c1` [Example 59, N-((1-amino-5,7-dimethylisoquinolin-6-yl)methyl)-1-((1-methyl-1H-indazol-6-yl)methyl)-1H-pyrazole-4-carboxamide], the EC50 is 0.001 to 0.01 µM. Turning to `Cc1cc2c(N)nccc2c(C)c1CNC(=O)c1cnn(Cc2ccc(Cc3nncn3C)cc2)c1` [Example 117, N-((1-amino-5,7-dimethylisoquinolin-6-yl)methyl)-1-(4-((4-methyl-4H-1,2,4-triazol-3-yl)methyl)benzyl)-1H-pyrazole-4-carboxamide], the EC50 was 0.001 to 0.01 µM.

In the case of `Cc1cc2c(N)nccc2c(C)c1CNC(=O)c1cnn(Cc2ccc3ccccc3c2)c1` [Example 56, N-((1-amino-5,7-dimethylisoquinolin-6-yl)methyl)-1-(naphthalen-2-ylmethyl)-1H-pyrazole-4-carboxamide], the half-maximal effective concentration (EC50) was in the range of 0.001 to 0.01 µM.

As to `Cc1cc2c(N)nccc2c(C)c1CNC(=O)c1cnn(Cc2ccc(CC(=O)NC34CC(C3)C4)cc2)c1` [Example 221, N-((1-amino-5,7-dimethylisoquinolin-6-yl)methyl)-1-(4-(2-(bicyclo[1.1.1]pentan-1-ylamino)-2-oxoethyl)benzyl)-1H-pyrazole-4-carboxamide], the EC50 was in the range of 0.001 to 0.01 µM.

For the compound `Cc1cc2c(N)nccc2c(C)c1CNC(=O)c1cnn(Cc2cnc3c(C)cccc3c2)c1` [Example 72, N-((1-amino-5,7-dimethylisoquinolin-6-yl)methyl)-1-((8-methylquinolin-3-yl)methyl)-1H-pyrazole-4-carboxamide], the concentration giving a half-maximal response (EC50) is under 0.001 µM. As for `Cc1cc2c(N)nccc2c(C)c1CNC(=O)c1cnn(Cc2ccccc2)c1` [Example 160, N-((1-amino-5,7-dimethylisoquinolin-6-yl)methyl)-1-benzyl-1H-pyrazole-4-carboxamide], the EC50 lay in the range of 0.1 to 1 µM. The same measure, in the same setting: next, `Cc1cc2c(N)nccc2c(C)c1CNc1cc(NCc2ccc3ccccc3c2)ncn1` [Example 233, N4-((1-amino-5,7-dimethylisoquinolin-6-yl)methyl)-N6-(naphthalen-2-ylmethyl)pyrimidine-4,6-diamine]: 0.01 to 0.1 µM.

Turning to `CCOC(=O)N(C)c1ccc(Cn2cc(C(=O)NCc3c(C)cc4c(N)nccc4c3C)cn2)cc1` [Example 25, ethyl (4-((4-(((1-amino-5,7-dimethylisoquinolin-6-yl)methyl)carbamoyl)-1H-pyrazol-1-yl)methyl)phenyl)(methyl)carbamate], the EC50 lay within 0.001 to 0.01 µM. Consider `Cc1cnc2cc(CNc3cc(NCc4c(C)cc5c(N)nccc5c4C)ncn3)ccc2c1` [Example 311, N^4-((1-amino-5,7-dimethylisoquinolin-6-yl)methyl)-N^6-((3-methylquinolin-7-yl)methyl)pyrimidine-4,6-diamine], for which the EC50 lay in the range of 0.001 to 0.01 µM. As to `Cc1cc2c(N)nccc2c(C)c1CNc1cc(=O)n(Cc2cn3c(=O)n(C4CC4)ccc3n2)cn1` [Example 505, 2-((4-(((1-amino-5,7-dimethylisoquinolin-6-yl)methyl)amino)-6-oxopyrimidin-1(6H)-yl)methyl)-6-cyclopropylimidazo[1,2-c]pyrimidin-5(6H)-one], the half-maximal effective concentration (EC50) is over 1 µM.

With `Cc1cc2c(N)nccc2c(C)c1CNc1cc(N(C)Cc2ccc3ncccc3c2)cnn1` [Example 428, N^3-((1-amino-5,7-dimethylisoquinolin-6-yl)methyl)-N^5-methyl-N^5-(quinolin-6-ylmethyl)pyridazine-3,5-diamine], the concentration for a half-maximal effect (EC50) fell in the range of 0.001 to 0.01 µM. Consider `Cc1cc2c(N)nccc2c(C)c1CNc1cc(NCc2ccc3ccccc3n2)ncn1` [Example 306, N^4-((1-amino-5,7-dimethylisoquinolin-6-yl)methyl)-N^6-(quinolin-2-ylmethyl)pyrimidine-4,6-diamine], for which the EC50 lay in the range of 0.01 to 0.1 µM. On to `Cc1cc2cc(CNc3cc(NCc4c(C)cc5c(N)nccc5c4C)ncn3)cnc2cc1C` [Example 325, N^4-((1-amino-5,7-dimethylisoquinolin-6-yl)methyl)-N^6-((6,7-dimethylquinolin-3-yl)methyl)pyrimidine-4,6-diamine], for which the EC50 is 0.001 to 0.01 µM. Turning to `Cc1ncc2ccc(Cn3cc(C(=O)NCc4c(C)cc5c(N)nccc5c4C)cn3)cc2n1` [Example 16, N-((1-amino-5,7-dimethylisoquinolin-6-yl)methyl)-1-((2-methylquinazolin-7-yl)methyl)-1H-pyrazole-4-carboxamide], the EC50 lay in the range of 0.001 to 0.01 µM.

On to `Cc1cc2c(N)nccc2c(C)c1CNc1cc(NCc2cn3cc(C#N)ccc3n2)ncn1` [Example 332, 2-(((6-(((1-amino-5,7-dimethylisoquinolin-6-yl)methyl)amino)pyrimidin-4-yl)amino)methyl)imidazo[1,2-a]pyridine-6-carbonitrile], for which the EC50 is 0.001 to 0.01 µM. Still for that read-out and setting: next, `Cc1cc2c(N)nccc2c(C)c1CNC(=O)c1cnn(Cc2ccc(CC(=O)N3CCCC3)cc2)c1` [Example 232, N-((1-amino-5,7-dimethylisoquinolin-6-yl)methyl)-1-(4-(2-oxo-2-(pyrrolidin-1-yl)ethyl)benzyl)-1H-pyrazole-4-carboxamide]: under 0.001 µM; `Cc1cc2c(N)nccc2c(C)c1CNC(=O)c1cnn(Cc2ccc3ccc(Br)cc3n2)c1` [Example 156, N-((1-amino-5,7-dimethylisoquinolin-6-yl)methyl)-1-((7-bromoquinolin-2-yl)methyl)-1H-pyrazole-4-carboxamide]: 0.001 to 0.01 µM; `Cc1ccn2cc(Cn3cc(C(=O)NCc4c(C)cc5c(N)nccc5c4C)cn3)nc2c1` [Example 103, N-((1-amino-5,7-dimethylisoquinolin-6-yl)methyl)-1-((7-methylimidazo[1,2-a]pyridin-2-yl)methyl)-1H-pyrazole-4-carboxamide]: under 0.001 µM.

In the case of `Cc1cc2c(N)nccc2c(C)c1CNC(=O)c1cnn(Cc2cn3ccccc3n2)c1` [Example 53, N-((1-amino-5,7-dimethylisoquinolin-6-yl)methyl)-1-(imidazo[1,2-a]pyridin-2-ylmethyl)-1H-pyrazole-4-carboxamide], the EC50 was 0.001 to 0.01 µM. Same read-out and setting: next, `COc1ccnc2ccc(CNc3cc(NCc4c(C)cc5c(N)nccc5c4C)ncn3)cc12` [Example 323, N^4-((1-amino-5,7-dimethylisoquinolin-6-yl)methyl)-N^6-((4-methoxyquinolin-6-yl)methyl)pyrimidine-4,6-diamine]: 0.001 to 0.01 µM; `Cc1cc2c(N)nccc2c(C)c1CNc1cc(OCc2ccc3ccccc3c2)cnn1` [Example 252, 5,7-dimethyl-6-(((5-(naphthalen-2-ylmethoxy)pyridazin-3-yl)amino)methyl)isoquinolin-1-amine]: 0.01 to 0.1 µM. With `Cc1cc2c(N)nccc2c(C)c1CNc1cc(NCc2ccc(C3CC3)cc2)ncn1` [Example 339, N^4-((1-amino-5,7-dimethylisoquinolin-6-yl)methyl)-N^6-(4-cyclopropylbenzyl)pyrimidine-4,6-diamine], the half-maximal effective concentration (EC50) was in the range of 0.01 to 0.1 µM. In the case of `Cc1cc2c(N)nccc2c(C)c1CNC(=O)c1cnn(Cc2cc(Cl)cc(Cl)c2)c1` [Example 37, N-((1-amino-5,7-dimethylisoquinolin-6-yl)methyl)-1-(3,5-dichlorobenzyl)-1H-pyrazole-4-carboxamide], the EC50 lay in the range of 0.01 to 0.1 µM. On to `COc1ccc2cc(Cn3cc(C(=O)NCc4c(C)cc5c(N)nccc5c4C)cn3)cnc2c1` [Example 111, N-((1-amino-5,7-dimethylisoquinolin-6-yl)methyl)-1-((7-methoxyquinolin-3-yl)methyl)-1H-pyrazole-4-carboxamide], for which the EC50 is under 0.001 µM. With `Cc1cc2c(N)nccc2c(C)c1CNC(=O)c1cc(CN)n(Cc2ccccc2)n1` [Example 203, N-((1-amino-5,7-dimethylisoquinolin-6-y1)methyl)-5-(aminomethyl)-1-benzyl-1H-pyrazole-3-carboxamide], the half-maximal effective concentration (EC50) was over 1 µM.

Still in this test, the particulars now being: Primary Dose Response Assay: Average EC50, 500 pM activated kallikrein; 300 μM PFR-AMC; 30 min preincubation; 10 min room temperature; pH 7.5.
As to `Cc1cc2c(N)nccc2c(C)c1CNC(=O)c1cn(Cc2cn3cc(C4CC4)ccc3n2)c2cccnc12` [Example I-485, N-((1-amino-5,7-dimethylisoquinolin-6-yl)methyl)-1-((6-cyclopropylimidazo[1,2-a]pyridin-2-yl)methyl)-1H-pyrrolo[3,2-b]pyridine-3-carboxamide], the EC50 was 0.001 to 0.01 µM.
